In patent US20100022014A1, “Method for Evaluating Obesity Controller” (Kao Corporation, priority 2006, published 2010):

Tested on: insulin secretion
Assay: Postprandial insulin secretion after oral glucose + triolein emulsion with added 1-monoolein (Example 5)
Type: in vivo, mouse
Settings: MAG in a one-tenth or one-fifth amount, in words
Procedure: Triolein (obtained from Sigma Corp.) was used as triacylglycerol, and 1-monoolein (obtained from Sigma Corp.) was used as monoacylglycerol. Glucose (Kanto Chemical Co., Inc.) was used as the carbohydrate.
Eight fasted mice (C57BL/6J, male, 8 weeks old) were grouped in each group, and the mice were orally administered, using a sonde, with 2 mg/g of body weight of glucose only; with the glucose and also 2 mg/g of body weight of triolein (TAG), in the form of an emulsion obtained by emulsifying 0.02 mg/g of body weight of the lipid with egg yolk lecithin (Glucose and TAG/MAG0, respectively); or with mixtures obtained by respectively adding 0.08, 0.2 and 0.4 mg/g of body weight of 1-monoolein (MAG) to the emulsion (TAG/MAG1, TAG/MAG2, and TAG/MAG3, respectively). The blood was sampled from the orbital vein of each mouse before the administration, and at 10 and 30 minutes after the administration, the blood insulin level was measured, and the area under curve (AUC) of the graph was calculated. The insulin level was measured by the ELISA method (insulin measuring kit, Morinaga Biochemical Lab, Inc.).
Relative values of the amount of secreted insulin (AUC) for 30 minutes after the administration, with respective to the insulin AUC value of the mice which ingested glucose only, taken as 100, are presented in Table 9.

SMILES: CCCCCCCC/C=C\CCCCCCCC(=O)OCC(O)CO (stereo not shown) [MAG, 1-monoolein]
- Effect on postprandial insulin secretion relative to TAG/MAG0: effect of suppressing the postprandial insulin secretion in the blood was recognized
